pIC50: −log10 of the molar value.

In general, pIC50 refers to −log10 of the IC50, conventionally taken in molar units. For orientation: inhibition means how much of the control response was suppressed.

One data set relates to mice. As to the kind of experiment: Acute toxicity, single oral dose. Type of data set: in vivo. Here is the method: Five-week-old ICR female mice (5 mice per group) were bred for acclimation for a week. Then, the compounds of the present invention were dissolved or dispersed in an aqueous solution of 0.5% methylcellulose, and orally administered to the mice in a single dosage (500 mg/kg).

Data set [1] concerns the target T1, angiotensin II receptor subtype 1 (AT1) (Oryctolagus cuniculus, UniProt P34976).
T1 construct: receptor: from adrenal glands in rabbits; from tissue; host or cells: rabbit adrenal glands
T1 sequence (P34976 1-359): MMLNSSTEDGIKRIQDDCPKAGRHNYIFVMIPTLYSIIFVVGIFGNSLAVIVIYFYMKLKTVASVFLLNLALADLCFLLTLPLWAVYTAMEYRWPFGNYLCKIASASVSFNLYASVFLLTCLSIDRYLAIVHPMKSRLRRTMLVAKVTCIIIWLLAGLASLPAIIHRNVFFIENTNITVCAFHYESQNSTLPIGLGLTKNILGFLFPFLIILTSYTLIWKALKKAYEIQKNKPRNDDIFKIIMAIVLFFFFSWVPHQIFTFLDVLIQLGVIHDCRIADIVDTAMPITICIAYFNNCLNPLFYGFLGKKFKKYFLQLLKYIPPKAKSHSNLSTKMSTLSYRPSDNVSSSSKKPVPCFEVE
Nature of the data set: Binding assay, angiotensin II receptor subtype 1 (AT1). Further details: species or system rabbit (adrenal glands). Conditions: for pIC50: tracer 3H angiotensin II, room temperature 3 hours, read-out: IC50 AT1; for inhibition at 100 µM: AT1, rabbit adrenal glands. Here is the method:
(§1) In this Example, the affinity to the angiotensin II receptor subtype 1 or subtype 2 was evaluated by a binding assay in accordance with the method described in Biochem. Pharmacol., 33, 4057-4062 (1984).
(§2) Specifically, the measurement of the total binding in the presence of each drug was performed as follows:
(§3) A mixture (final volume=0.25 ml) of a drug in a given concentration (the drug was dissolved in DMSO, and diluted to a double volume with a buffer attached to a drug discovery system to prepare sample for the assay; 0.025 ml), a tracer (0.025 ml), and receptors (0.2 ml) was incubated [in the case of the angiotensin II receptor subtype 1 (AT1), at room temperature for 3 hours, and in the case of the subtype 2 (AT2), at 37° C. for 1 hour]. Then, the reaction mixture was filtered with suction (GF/C filter was used in AT1, and GF/B filter was used in AT2). The filter papers after filtration with suction (the tracer bound to the receptors) were counted by a γ-well counter (ARC-500, Aloka). The non-specific bindings were measured by repeating the above method, except that a large excess amount of a displacer was added. The specific binding of the drug in the given concentration was calculated by subtracting the non-specific binding from the total binding, respectively.
(§4) In AT1 and AT2, the percentages to inhibit the bindings of radioactive ligands (tracer) to receptors by the drugs to be tested (IC50 value of concentration to show 50% inhibition, or binding inhibition % in 100 μM) were measured, using the drugs to be tested and control drugs in the given concentration.

Data set [2] addresses T2, angiotensin II receptor subtype 2 (AT2) (Bos taurus, UniProt G5E6F7).
T2 construct: receptor: from cerebellar cortex in bovine; from tissue; host or cells: bovine cerebellar cortex
T2 sequence (G5E6F7 1-362): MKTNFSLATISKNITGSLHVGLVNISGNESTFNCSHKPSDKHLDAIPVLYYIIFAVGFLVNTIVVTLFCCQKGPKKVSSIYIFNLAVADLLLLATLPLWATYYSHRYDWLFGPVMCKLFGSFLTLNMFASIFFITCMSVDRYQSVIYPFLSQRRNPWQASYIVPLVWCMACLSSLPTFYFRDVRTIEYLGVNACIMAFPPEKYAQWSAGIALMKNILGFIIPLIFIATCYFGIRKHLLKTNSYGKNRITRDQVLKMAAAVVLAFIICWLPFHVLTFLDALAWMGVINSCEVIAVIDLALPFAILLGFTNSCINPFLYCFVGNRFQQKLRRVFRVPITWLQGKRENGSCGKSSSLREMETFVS
Nature of the data set: Binding assay, angiotensin II receptor subtype 2 (AT2). Further details: species or system bovine (cerebellar cortex). Conditions: 100 μM, AT2, bovine cerebellar cortex, 37° C. 1 hour; read-out: Binding inhibition % in 100 μm, AT2. As for the experimental part: as §1, §2, §3, §4
receptor: from cerebellar cortex in bovine
tracer: ^125 ITyr^4angiotensin II
control drug: angiotensin II (human)
(displacer): angiotensin II (human)

The subject of data set [3] is kidney disease model rats. Nature of the data set: Action to depress blood pressure (tail cuff method). It is filed as in vivo, Sprague-Dawley female rats. Conditions: systolic, average, 20 mg/kg per os, two days from administration; control (water) 203. Here is the method: The compounds of the present invention and the reference substance were forcedly administered per os to kidney disease model rats, and the action to depress blood pressure was observed. The kidney disease model rats were prepared by ligature of branches of renal artery in accordance with the conventional method, that is, the left hilum renalis of Sprague-Dawley female rats was exposed under anesthesia, and one of four secondary branches of renal artery was left unligated, while the remaining three branches were ligated, respectively. After a week, the hilum renalis (artery, vein, and ureter) of the right kidney were further ligated to thereby prepare the rats whose renal function was lowered to approximately 1/8 of the normal function. Each group consisted of eight rats. The drugs to be tested (20 mg/kg) were administered to each administering group, and only water was administered to control group. After two days from the administration, the systolic blood pressure was measured by the tail cuff method using a blood pressure measuring apparatus (UR5000; Ueda).

Data set [4] relates to kidney disease model rats. Nature of the data set: Renal function indicatory value (action to kidney diseases). Type of data set: in vivo, Sprague-Dawley female rats. Conditions: 20 mg/kg/day per os, two weeks; for Creatinine clearance: 24 hours urine, control 0.20; for Creatinine / Urea nitrogen: serum; for Creatinine: control 2.0; for Urea nitrogen: control 100. As for the experimental part:
The kidney disease model rats were prepared as in Example 115. Twenty-five groups (8 rats per group) were sleeked in a manner so that there were no major differences between each group in the serum creatinine value and the urea nitrogen value indicating renal function. The rats in each group were allowed to freely take up feed and water. […] To the rats in the control group, only water was forcedly administered per os every day. After two weeks, 0.2 ml of blood was collected from the carotid artery of the rat under anesthesia, and centrifuged to obtain serum. Using 25 μl of the serum, serum creatinine (Scr) was measured by a creatinine analytical instrument (Beckman). Using 10 μl of the serum, urea nitrogen (BUN) was measured by a BUN analytical instrument (Beckman). Creatinine clearance was evaluated as follows:
After serum creatinine measurement, rats were placed in urinary metabolic cages for 24 hours to collect urine. Urinary creatine concentration (Ucr) was measured by a creatinine analytical instrument, and total volume of urination (Uvol) was also measured. Creatinine clearance (CCr) was calculated by the following formula: [formula]

The subject of data set [5] is kidney disease model rats. Nature of the data set: Action to survival time of kidney diseased animals. Type of data set: in vivo, Sprague-Dawley female rats. Conditions: 20 mg/kg/day per os, observation eight weeks (upper limit); control 5.0. As for the experimental part: The kidney disease model rats were prepared as in Example 115. Twenty-five groups (8 rats per group) were prepared in a manner so that there was no major difference between the groups in the serum creatinine value and the urea nitrogen value indicating renal function. The rats in each group were allowed to freely take up feed and water. […] To the rats in the control group, only water was forcedly administered per os every day. If kidney diseases are aggravated, the rat will die of uremia. Thus, the survival time was observed as comprehensive indication of the improvement effect on the kidney diseases. The observation period was eight weeks. Thus if all rats survived, the average survival time is eight weeks and it is an upper limit.

Turning to `CCCCC(=O)N(Cc1ccc(-c2ccccc2-c2nn[nH]n2)cc1)c1cc(C(=O)N2CCOCC2)ccc1NC(C)=O` [Compound No. 592, 4-acetamido-3-N-[[[2'-(1H-tetrazol-5-yl)biphenyl-4-yl]methyl]valeramido]benzoic acid morpholide], the “Number of deaths/number of survivals” value with mice (mouse, in vivo, po, 500 mg/kg) is given as 0/5. Moreover, the pIC50 in data set [1] is 5.31. In addition, in data set [2], the inhibition at 100 µM was 0%. Moreover, in data set [3], the Blood pressure is 202 mmHg. In addition, in data set [4], the Creatinine clearance came out at 0.33 mL/min, the Creatinine was 1.7 mg/dL and the Urea nitrogen came to 76 mg/dL. Moreover, the Average survival time in data set [5] is on record as 7.0 weeks.

As to `CCCCCN(C)c1c(NCc2ccc(-c3ccccc3-c3nn[nH]n3)cc2)cc(C(=O)N2CCOCC2)cc1NC(=O)C(c1ccccc1)c1ccccc1` [Compound No. 593, 4-(N-n-amyl-N-methyl)amino-5-(diphenylacetamido)-3-[[2'-(1H-tetrazol-5-yl)biphenyl-4-yl]methylamino]benzoic acid morpholide], the “Number of deaths/number of survivals” value in the data set with mice (mouse, in vivo, po, 500 mg/kg) is given as 0/5. In addition, the inhibition at 100 µM in data set [1] turned out to be 36%. Further, the inhibition at 100 µM in data set [2] amounted to 0%. In addition, the Blood pressure in data set [3] turned out to be 200 mmHg. Besides, in data set [4], the Creatinine clearance was 0.31 mL/min, the Creatinine turned out to be 1.6 mg/dL and the Urea nitrogen is 80 mg/dL. The Average survival time in data set [5] was 7.1 weeks.

With `CCCCC(=O)Nc1ccc(C(=O)N2CCOCC2)cc1N(Cc1ccc(-c2ccccc2-c2nn[nH]n2)cc1)Cc1ccc(-c2ccccc2-c2nn[nH]n2)cc1` [Compound No. 594, 3-[di-[2'-(1H-tetrazol-5-yl)biphenyl-4-yl]methylamino]-4-valeramidobenzoicacid morpholide], the “Number of deaths/number of survivals” value in the data set on mice (mice, single oral 500 mg/kg, observed for 6 days, 5 per group) is given as 0/5. Moreover, the pIC50 in data set [1] was 4.49. The inhibition at 100 µM in data set [2] is 0%. For the same compound, in data set [3], the Blood pressure was 194 mmHg. In data set [4], the Creatinine clearance was 0.30 mL/min, the Creatinine is 1.7 mg/dL and the Urea nitrogen was 77 mg/dL. This compound also showed an Average survival time in data set [5] of 6.5 weeks.

As to `CCCCCN(C)c1ccc(S(=O)(=O)N2CCOCC2)cc1NCc1ccc(-c2ccccc2-c2nn[nH]n2)cc1` [Compound No. 595, 4-[[4-(N-n-amyl-N-methyl)amino-3-[[2'-(1H-tetrazol-5-yl)biphenyl-4-yl]methyl]aminobenzene]sulfonyl]morpholine], in the data set with mice (mouse, in vivo, po, 500 mg/kg), the “Number of deaths/number of survivals” value was 0/5. In addition, in data set [1], 100 µM produced 41% inhibition. Moreover, the inhibition at 100 µM in data set [2] was 0%. The Blood pressure in data set [3] is on record as 198 mmHg. Also, in data set [4], the Creatinine clearance was 0.38 mL/min, the Creatinine came out at 1.5 mg/dL and the Urea nitrogen came out at 73 mg/dL. In data set [5], the Average survival time was determined as 7.6 weeks.

Regarding `CCCCCN(C)c1ccc(S(=O)(=O)N2CCOCC2)cc1NCc1ccc(C(=O)O)cc1` [Compound No. 596, 4-[[4-(N-n-amyl-N-methyl)amino-3-[(4-carboxyphenyl)methyl]aminobenzene]sulfonyl]morpholine], the “Number of deaths/number of survivals” value with mice (mouse, in vivo, po, 500 mg/kg) is 0/5. In data set [1], this compound gave an inhibition at 100 µM of 22%. Also, in data set [2], the inhibition at 100 µM turned out to be 0%. The Blood pressure in data set [3] amounted to 198 mmHg. In data set [4], this compound had a Creatinine clearance of 0.34 mL/min, a Creatinine of 1.6 mg/dL and a Urea nitrogen of 78 mg/dL. In data set [5], this compound gave an Average survival time of 6.0 weeks.

For `CCCCCN(C)c1c(NCc2ccc(C(=O)O)cc2)cc(S(=O)(=O)N2CCOCC2)cc1NC(=O)C(c1ccccc1)c1ccccc1` [Compound No. 598, 4-[[4-(N-n-amyl-N-methyl)amino-3-[(4-carboxylphenyl)methyl]amino-5-(diphenylacetamido)benzene]sulfonyl]morpholine], the “Number of deaths/number of survivals” value with mice (mouse, in vivo, po, 500 mg/kg) is 0/5. Further, 100 µM produced 36% inhibition in data set [1]. Further, in data set [2], the inhibition at 100 µM came to 0%. In addition, the Blood pressure in data set [3] is given as 202 mmHg. In data set [4], this compound had a Creatinine clearance of 0.35 mL/min, a Creatinine of 1.6 mg/dL and a Urea nitrogen of 80 mg/dL. In data set [5], this compound had an Average survival time of 7.2 weeks.

With `CCCCCN(C)c1c(NCc2ccc(-c3ccccc3-c3nn[nH]n3)cc2)cc(S(=O)(=O)N2CCOCC2)cc1NC(=O)CCc1ccccc1` [Compound No. 599, 4-[[4-(N-n-amyl-N-methyl)amino-3-[[2'-(1H-tetrazol-5-yl)biphenyl-4-yl]methyl]amino-5-(3-phenylpropionamido)benzene]sulfonyl]morpholine], in the data set on mice (mouse, in vivo, po, 500 mg/kg), the “Number of deaths/number of survivals” value was 0/5. The inhibition at 100 µM in data set [1] worked out at 38%. Also, in data set [2], the inhibition at 100 µM turned out to be 0%. The Blood pressure in data set [3] is 200 mmHg. For the same compound, in data set [4], the Creatinine clearance stood at 0.35 mL/min, the Creatinine stood at 1.5 mg/dL and the Urea nitrogen was 73 mg/dL. The same compound returned an Average survival time in data set [5] of 7.0 weeks.

These data come from patent US5739131A, “Benzene derivatives and pharmaceutical composition” (Kureha Chemical Industry Co., Ltd., priority 1994, dated 1998).
